Source: patent US20250388574A1, “HETEROCYCLIC COMPOUNDS AS TRIGGERING RECEPTOR EXPRESSED ON MYELOID CELLS 2 AGONISTS AND METHODS OF USE” (AMGEN INC., priority 2020, published 2025)
Read-outs that look alike come from different tables or passages of the source.

Target: hTREM2 (Homo sapiens, UniProt Q9NZC2)
Assay: Phospho-Syk AlphaScreen/AlphaLISA assay in TREM2 and DAP12 overexpressing HEK293 cells (Example A1)
Assay type: cell-based
Parameters: expressed in transfected cells
Procedure, shortened: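 Single-cell-cloned HEK293 stably overexpressing TREM2 and DAP12, plated 20,000 cells/well for 20 h, then exposed to compounds (1% DMSO) 45 min at room temperature. Lysates probed for phospho-Syk by AlphaLISA sandwich (anti-pSyk, biotinylated anti-Syk); signal normalized to percent of control (100 nM anti-TREM2 antibody vs isotype) and fitted by 4-parameter logistic.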

[1] = HEK293 cells, read-out: hTREM2 EC50

Sequence of hTREM2 (Q9NZC2 19-230): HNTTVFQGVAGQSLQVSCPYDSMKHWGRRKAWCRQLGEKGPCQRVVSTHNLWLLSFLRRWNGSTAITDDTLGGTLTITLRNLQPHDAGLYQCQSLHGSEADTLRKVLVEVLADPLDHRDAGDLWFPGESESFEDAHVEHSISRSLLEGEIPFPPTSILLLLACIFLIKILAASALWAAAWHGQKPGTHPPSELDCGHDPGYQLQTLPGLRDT
Sequence of hTREM2 (O43914 22-113 partner): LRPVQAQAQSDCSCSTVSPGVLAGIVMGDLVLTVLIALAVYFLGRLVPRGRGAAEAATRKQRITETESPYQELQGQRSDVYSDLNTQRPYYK

SMILES | Emax (HEK293 cells) | EC50 [1] | EC50 (hTREM2 EC50, HEK293 cells)
Cc1nc2cc(N3CCO[C@@H](c4cnn(C(F)CF)c4)C3)nc(-c3ccc(Cl)cc3F)c2c(=O)n1C (stereo partly drawn) [Example 135, 5-(4-chloro-2-fluorophenyl)-7-((2S)-2-(1-(1,2-difluoroethyl)-1H-pyrazol-4-yl)-4-morpholinyl)-2,3-dimethylpyrido[4,3-d]pyrimidin-4(3H)-one] | – | – | 50 to 500 nM
Cn1cc([C@H]2CN(c3cc4nc(C5CC5)n(C)c(=O)c4c(-c4ccc(Cl)cc4F)n3)CCO2)cn1 [Example 142, 5-(4-chloro-2-fluorophenyl)-2-cyclopropyl-3-methyl-7-((2S)-2-(1-methyl-1H-pyrazol-4-yl)-4-morpholinyl)pyrido[4,3-d]pyrimidin-4(3H)-one] | ++++ (Emax>300) | 50 to 500 nM | –
Cc1nc2cc(N3CCO[C@@H](c4cnn(C)c4)C3)nc(-c3ccc(Cl)cc3F)c2c(=O)[nH]1 [Example 145, 5-(4-chloro-2-fluorophenyl)-2-methyl-7-((2S)-2-(1-methyl-1H-pyrazol-4-yl)-4-morpholinyl)pyrido[4,3-d]pyrimidin-4(3H)-one] | ++ (Emax>100 and ≤200) | 500 to 3000 nM | –
CCn1c(C)nc2cc(N3CCO[C@@H](c4noc(C)n4)C3)nc(-c3ccc(Cl)cc3F)c2c1=O [Example 148, 5-(4-chloro-2-fluorophenyl)-3-ethyl-2-methyl-7-((2R)-2-(5-methyl-1,2,4-oxadiazol-3-yl)-4-morpholinyl)pyrido[4,3-d]pyrimidin-4(3H)-one] | ++++ (Emax>300) | 3000 to 100000 nM | –
CCCn1c(C)nc2cc(N3CCO[C@H](c4ccnn4C)C3)nc(-c3ccc(Cl)cc3F)c2c1=O [Example 154, 5-(4-chloro-2-fluorophenyl)-2-methyl-7-((2S)-2-(1-methyl-1H-pyrazol-5-yl)-4-morpholinyl)-3-propylpyrido[4,3-d]pyrimidin-4(3H)-one] | ++++ (Emax>300) | 3000 to 100000 nM | –
CCCn1c(C)nc2cc(N3CCO[C@@H](c4ccnn4C)C3)nc(-c3ccc(Cl)cc3F)c2c1=O [Example 155, 5-(4-chloro-2-fluorophenyl)-2-methyl-7-((2R)-2-(1-methyl-1H-pyrazol-5-yl)-4-morpholinyl)-3-propylpyrido[4,3-d]pyrimidin-4(3H)-one] | ++++ (Emax>300) | 50 to 500 nM | –
CCCn1c(C)nc2cc(N3CCO[C@@H](C(F)F)C3)nc(-c3ccc(Cl)cc3F)c2c1=O [Example 156, 5-(4-chloro-2-fluorophenyl)-7-((2R)-2-(difluoromethyl)-4-morpholinyl)-2-methyl-3-propylpyrido[4,3-d]pyrimidin-4(3H)-one] | ++++ (Emax>300) | 500 to 3000 nM | –
CCCn1c(C)nc2cc(N3CCO[C@@H](c4ccccc4)C3)nc(-c3ccc(Cl)cc3F)c2c1=O [Example 157, 5-(4-chloro-2-fluorophenyl)-2-methyl-7-((2S)-2-phenyl-4-morpholinyl)-3-propylpyrido[4,3-d]pyrimidin-4(3H)-one] | ++++ (Emax>300) | 500 to 3000 nM | –
Cn1cc([C@H]2CN(c3cc4ncn(C)c(=O)c4c(-c4ccc(Cl)cc4F)n3)CCO2)cn1 [Example 158, 5-(4-chloro-2-fluorophenyl)-3-methyl-7-((2S)-2-(1-methyl-1H-pyrazol-4-yl)-4-morpholinyl)pyrido[4,3-d]pyrimidin-4(3H)-one] | +++ (Emax>200 and ≤300) | 500 to 3000 nM | –
Cc1nc2cc(N3CCO[C@@H](c4cnn(C)c4)C3)nc(C3CCCCC3)c2c(=O)n1C [Example 159, 5-cyclohexyl-2,3-dimethyl-7-((2S)-2-(1-methyl-1H-pyrazol-4-yl)-4-morpholinyl)pyrido[4,3-d]pyrimidin-4(3H)-one] | +++ (Emax>200 and ≤300) | 500 to 3000 nM | –
Cc1nc2cc(N3CCO[C@@H](c4cnn(C)c4)C3)nc(C3CCCC3)c2c(=O)n1C [Example 160, 5-cyclopentyl-2,3-dimethyl-7-((2S)-2-(1-methyl-1H-pyrazol-4-yl)-4-morpholinyl)pyrido[4,3-d]pyrimidin-4(3H)-one] | +++ (Emax>200 and ≤300) | 500 to 3000 nM | –
Cc1ccc(C2CC(c3cc4nc(C)n(C)c(=O)c4c(-c4ccc(Cl)cc4F)n3)CCO2)cn1 (stereo not drawn) [Example 171, 5-(4-chloro-2-fluorophenyl)-2,3-dimethyl-7-(2-(6-methylpyridin-3-yl)tetrahydro-2H-pyran-4-yl)pyrido[4,3-d]pyrimidin-4(3H)-one] | +++ (Emax>200 and ≤300) | 50 to 500 nM | –

Now from value to molecule, other results behind:

Emax (HEK293 cells) | EC50 [1] | SMILES | EC50 (hTREM2 EC50, HEK293 cells)
++++ (Emax>300) | 50 to 500 nM | Cc1nc2cc(N3CCO[C@@H](c4cnn(C5CN(C(=O)OC(C)(C)C)C5)c4)C3)nc(-c3ccc(Cl)cc3F)c2c(=O)n1C [Example 134, 2-methyl-2-propanyl 3-(4-((2S)-4-(5-(4-chloro-2-fluorophenyl)-2,3-dimethyl-4-oxo-3,4-dihydropyrido[4,3-d]pyrimidin-7-yl)-2-morpholinyl)-1H-pyrazol-1-yl)-1-azetidinecarboxylate] | –
++++ (Emax>300) | < 50 nM | Cc1nc2cc(N3CCO[C@@H](c4cnn(C5CC5)c4)C3)nc(-c3ccc(Cl)cc3F)c2c(=O)n1C [Example 136, 5-(4-chloro-2-fluorophenyl)-7-((2S)-2-(1-cyclopropyl-1H-pyrazol-4-yl)-4-morpholinyl)-2,3-dimethylpyrido[4,3-d]pyrimidin-4(3H)-one] | –
++++ (Emax>300) | < 50 nM | C=Cn1cc([C@H]2CN(c3cc4nc(C)n(C)c(=O)c4c(-c4ccc(Cl)cc4F)n3)CCO2)cn1 [Example 137, 5-(4-chloro-2-fluorophenyl)-7-((2S)-2-(1-ethenyl-1H-pyrazol-4-yl)-4-morpholinyl)-2,3-dimethylpyrido[4,3-d]pyrimidin-4(3H)-one] | –
+++ (Emax>200 and ≤300) | 50 to 500 nM | Cc1nc2cc(N3CCO[C@@H](c4cnn(C5CN(C)C5)c4)C3)nc(-c3ccc(Cl)cc3F)c2c(=O)n1C [Example 138, 5-(4-chloro-2-fluorophenyl)-2,3-dimethyl-7-((2S)-2-(1-(1-methyl-3-azetidinyl)-1H-pyrazol-4-yl)-4-morpholinyl)pyrido[4,3-d]pyrimidin-4(3H)-one] | –
++++ (Emax>300) | 50 to 500 nM | Cc1nc2cc(N3CCO[C@@H](c4cnn(C(F)(F)F)c4)C3)nc(-c3ccc(Cl)cc3F)c2c(=O)n1C [Example 141, 5-(4-chloro-2-fluorophenyl)-2,3-dimethyl-7-((2S)-2-(1-(trifluoromethyl)-1H-pyrazol-4-yl)-4-morpholinyl)pyrido[4,3-d]pyrimidin-4(3H)-one] | –
++++ (Emax>300) | 50 to 500 nM | Cn1cc([C@H]2CN(c3cc4nc(C(F)(F)F)n(C)c(=O)c4c(-c4ccc(Cl)cc4F)n3)CCO2)cn1 [Example 143, 5-(4-chloro-2-fluorophenyl)-3-methyl-7-((2S)-2-(1-methyl-1H-pyrazol-4-yl)-4-morpholinyl)-2-(trifluoromethyl)pyrido[4,3-d]pyrimidin-4(3H)-one] | –
++++ (Emax>300) | 50 to 500 nM | CCn1c(C(F)(F)F)nc2cc(N3CCO[C@@H](c4cnn(C)c4)C3)nc(-c3ccc(Cl)cc3F)c2c1=O [Example 144, 5-(4-chloro-2-fluorophenyl)-3-ethyl-7-((2S)-2-(1-methyl-1H-pyrazol-4-yl)-4-morpholinyl)-2-(trifluoromethyl)pyrido[4,3-d]pyrimidin-4(3H)-one] | –
++++ (Emax>300) | < 50 nM | CCn1c(C)nc2cc(N3CCO[C@@H](c4cnn(C)c4)C3)nc(-c3ccc(Cl)cc3F)c2c1=O [Example 146, 5-(4-chloro-2-fluorophenyl)-3-ethyl-2-methyl-7-((2S)-2-(1-methyl-1H-pyrazol-4-yl)-4-morpholinyl)pyrido[4,3-d]pyrimidin-4(3H)-one] | –
++++ (Emax>300) | 50 to 500 nM | CCn1c(C)nc2cc(N3CCO[C@H](c4noc(C)n4)C3)nc(-c3ccc(Cl)cc3F)c2c1=O [Example 147, 5-(4-chloro-2-fluorophenyl)-3-ethyl-2-methyl-7-((2S)-2-(5-methyl-1,2,4-oxadiazol-3-yl)-4-morpholinyl)pyrido[4,3-d]pyrimidin-4(3H)-one] | –
+++ (Emax>200 and ≤300) | < 50 nM | CCn1c(C)nc2cc(N3CCO[C@@H](c4ccnc(C)c4)C3)nc(-c3ccc(Cl)cc3F)c2c1=O [Example 149, 5-(4-chloro-2-fluorophenyl)-3-ethyl-2-methyl-7-((2S)-2-(2-methyl-4-pyridinyl)-4-morpholinyl)pyrido[4,3-d]pyrimidin-4(3H)-one] | –
+++ (Emax>200 and ≤300) | < 50 nM | CCn1c(C)nc2cc(N3CCO[C@@H](c4ccnc(C)c4)C3)nc(-c3ccc(F)cc3F)c2c1=O [Example 150, 5-(2,4-difluorophenyl)-3-ethyl-2-methyl-7-((2S)-2-(2-methyl-4-pyridinyl)-4-morpholinyl)pyrido[4,3-d]pyrimidin-4(3H)-one] | –
+++ (Emax>200 and ≤300) | < 50 nM | CCn1c(C)nc2cc(N3CCO[C@@H](c4cnn(C5CC5)c4)C3)nc(-c3ccc(F)cc3F)c2c1=O [Example 151, 7-((2S)-2-(1-cyclopropyl-1H-pyrazol-4-yl)-4-morpholinyl)-5-(2,4-difluorophenyl)-3-ethyl-2-methylpyrido[4,3-d]pyrimidin-4(3H)-one] | –
+++ (Emax>200 and ≤300) | < 50 nM | CCCn1c(C)nc2cc(N3CCO[C@@H](c4cnn(C)c4)C3)nc(-c3ccc(Cl)cc3F)c2c1=O [Example 152, 5-(4-chloro-2-fluorophenyl)-2-methyl-7-((2S)-2-(1-methyl-1H-pyrazol-4-yl)-4-morpholinyl)-3-propylpyrido[4,3-d]pyrimidin-4(3H)-one] | –
++++ (Emax>300) | 50 to 500 nM | CCCn1c(C)nc2cc(N3CCO[C@@H](c4cnn(C)c4)C3)nc(-c3ncc(Cl)cc3F)c2c1=O [Example 153, 5-(5-chloro-3-fluoro-2-pyridinyl)-2-methyl-7-((2S)-2-(1-methyl-1H-pyrazol-4-yl)-4-morpholinyl)-3-propylpyrido[4,3-d]pyrimidin-4(3H)-one] | –
